Earlier results, collected in patent publication US11096912B2, “Valaciclovir and celecoxib combination for functional somatic syndromes” (INNOVATIVE MED CONCEPTS, LLC, priority 2012, dated 2021).

Test system: fibromyalgia patients
Conditions: valacyclovir alone; J. Rheumatology (2004) 31, 783-784

For `CC(C)[C@H](N)C(=O)OCCOCn1cnc2c(=O)[nH]c(N)nc21` [valacyclovir], the “treatment of fibromyalgia patients” value is given as “not successful”.
